Source: US20090170917A1, “Acid Mimic Compounds for the Inhibition of Isoprenyl-S-Cysteinyl Methyltransferase” (priority 2007, published 2009)

Tests used:
dermal inflammation = details: mice, background statement; cited from earlier work
[1] = biological target: membrane-associated isoprenyl-5-cysteinyl methyltransferase (Homo sapiens, UniProt O60725); details: background statement; cited from earlier work
[2] = test system: neutrophil, macrophage, and platelet responses; details: in vitro, background statement; cited from earlier work
[3] = test system: dermal neutrophil infiltration, neutrophil marker myeloperoxidase (MPO); assay: Mouse ear model of TPA-induced contact inflammation: MPO inhibition (dermal neutrophil infiltration); format: in vivo; details: for MPO (myeloperoxidase) inhibition (statement in words): in vivo activity, no dose stated; for % Inhibition MPO: TPA-treated mouse ear, 24 hours
Source text: (§1) G. et al., Anti-inflammatory Drugs, Clin. Pharmacol. Ther. 16, 900-4 (1974); Young et al., Tachyphylaxis in 12-Otetradecanoylphorbolacetate-and Arachidonic Acid-Induced Ear Edema; J. Invest. Dermatol. 80:48-52, (1983); Tramposch et al., In Vivo Models of Inflammation, (Morgan D W, Marshall L A eds), Birkhaüser Verlag: Basel, pp 179-204, 1999; and Gordon et al., Topical N-Acetyl-S-Farnesyl-L-Cysteine Inhibits Mouse Skin Inflammation, and Unlike Dexamethasone, Its Effects Are Restricted to the Application Site, J. Invest. Dermatol., 128(3):643-54, 2008 March)]. Moreover, the mouse ear model has been used by various groups to identify and compare members of differing classes of anti-inflammatory agents with multiple mechanisms of action (reviewed in Tramposch et al., 1999, supra).
To assay for inhibition of dermal neutrophil infiltration by S-isoprenyl and S-farnesyl cysteine compounds, a standard method was used (see Bradley et al., 1982, supra; Young et al., 1983, supra; De Young et al, “Edema and Cell Infiltration in the Phorbol Ester-treated Mouse Ear are Temporally Separate and can be Differentially Modulated by Pharmacologic Agents”, Agents Actions, 26(3-4): 335-41 (March 1989); and Rao et al. (1993) Comparative Evaluation of Arachidonic Acid (AA)-and Tetradecanoylphorbol Acetate (TPA)-Induced Dermal Inflammation, Inflammation 17:723-41). Briefly, we homogenized 6 mm biopsy punches taken from both compound-treated ears as well as TPA-treated and non-treated control groups. We quantitated the levels of MPO by a calorimetric reaction that was measured spectrophotometrically. The percent inhibition of neutrophil infiltration by each S-isoprenyl and S-farnesyl cysteine compound was determined by comparing the average MPO levels in the presence and absence of these compounds. […] Gordon et al., “Topical N-acetyl-5-farnesyl-L-cysteine Inhibits Mouse Skin Inflammation, and Unlike Dexamethasone, its Effects Are Restricted to the Application Site”, J. Invest. Derm., Vol. 128 pp. 643-654 (2008).

[4] = test system: TPA-treated mouse ears (erythema); assay: Mouse ear model of TPA-induced contact inflammation: erythema inhibition (Δa* redness, chroma meter); format: in vivo; details: for erythema inhibition (statement in words): in vivo activity, no dose stated; for % Inhibition Erythema: TPA-treated mouse ear, 24 hours
Source text: as §1
Another well documented biomarker of skin inflammation is skin redness, termed erythema, which is caused by capillary congestion and dilation in response to various chemical and environmental insults (see Denig, N. I. et al., Irritant Contact Dermatitis. Clues to Causes, Clinical Characteristics, and Control, Postgrad Med., May (1998); 103(5):199-200, 207-8, 212-3). […] The percent inhibition of erythema was determined by taking the average Δa* redness value of compound-treated ears and dividing it by the average Δa* value of 12 ears that only received TPA and subtracting that value from 100%. These values were corrected for the Δa* value of non TPA-treated mouse ears of littermate controls. […] Gordon et al., “Topical N-acetyl-5-farnesyl-L-cysteine Inhibits Mouse Skin Inflammation, and Unlike Dexamethasone, its Effects Are Restricted to the Application Site”, J. Invest. Derm., Vol. 128 pp. 643-654 (2008).

[5] = test system: TPA-treated mouse ears (edema); assay: Mouse ear model of TPA-induced contact inflammation: edema inhibition (ear thickness); format: in vivo; details: for edema inhibition (statement in words): in vivo activity, no dose stated; for % Inhibition Edema: TPA-treated mouse ear, 24 hours
Source text: as §1
The protocol for inducing in vivo acute contact inflammation on the ears of live mice has been described elsewhere (reviewed in Tramposch, 1999, supra). In brief, mice were sedated and their ears were treated with 1.2 μg/20 uL TPA (i.e., tetradecanoylphorbol-13-acetate). […] After 24 hours, the mice were sacrificed and edema was measured by taking micrometer readings of each ear. The percent inhibition of edema was determined by taking the average ear thickness of compound-treated ears and dividing it by the average thickness of 12 ears that only received TPA and subtracting that value from 100%. These values were corrected for the thickness of normal, non TPA-treated mouse ears of littermate controls. […] ED50 values were calculated as described in Gordon et al., “Topical N-acetyl-5-farnesyl-L-cysteine Inhibits Mouse Skin Inflammation, and Unlike Dexamethasone, its Effects Are Restricted to the Application Site”, J. Invest. Derm., Vol. 128 pp. 643-654 (2008).

Chain of membrane-associated isoprenyl-5-cysteinyl methyltransferase (O60725 whole entry): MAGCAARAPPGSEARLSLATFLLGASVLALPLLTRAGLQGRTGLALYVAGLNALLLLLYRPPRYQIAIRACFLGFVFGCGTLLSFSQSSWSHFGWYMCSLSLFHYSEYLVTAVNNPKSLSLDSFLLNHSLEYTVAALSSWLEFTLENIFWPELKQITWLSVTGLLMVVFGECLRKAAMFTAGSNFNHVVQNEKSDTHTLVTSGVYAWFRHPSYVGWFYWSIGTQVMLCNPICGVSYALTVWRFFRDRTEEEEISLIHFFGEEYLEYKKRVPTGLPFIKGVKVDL

SMILES	reduction of dermal inflammation (dermal inflammation)	inhibition of isoprenyl-S-cysteinyl methyltransferase (mode) [1]	block of neutrophil, macrophage and platelet responses [2]	MPO (myeloperoxidase) inhibition (statement in words) [3]	% Inhibition MPO ([3]; topical dose 0.8 mg/20 μL)	erythema inhibition (statement in words) [4]	edema inhibition (statement in words) [5]	% Inhibition Edema ([5]; topical dose 0.8 mg/20 μL)	% Inhibition Erythema ([4]; topical dose 0.8 mg/20 μL)	% Inhibition MPO ([3]; topical dose 0.2 mg/20 μL)	% Inhibition Erythema ([4]; topical dose 0.2 mg/20 μL)	% Inhibition Edema ([5]; topical dose 0.2 mg/20 μL)
CC(=O)N[C@@H](CSCC=C(C)CCC=C(C)CCC=C(C)C)C(=O)O [AFC, N-acetyl-5-farnesyl-L-cysteine]	effectively reduces dermal inflammation in mice	competitive inhibitor	block some neutrophil, macrophage, and platelet responses in vitro									
CC(=O)N[C@@H](CSC/C=C(\C)CC/C=C(\C)CCC=C(C)C)C(=O)NN [Compound A]				MPO (myeloperoxidase) inhibition	— 93.53 ± 1.13%	erythema inhibition	edema inhibition	— 42.36 ± 1.99%				
CC(=O)N[C@@H](CSC/C=C(\C)CC/C=C(\C)CCC=C(C)C)C(=O)NO [Compound B]				MPO (myeloperoxidase) inhibition	— 87.45 ± 1.37%	erythema inhibition	edema inhibition	— 33.64 ± 3.03%				
CC(=O)N[C@@H](CSC/C=C(\C)CC/C=C(\C)CCC=C(C)C)C(=O)NNc1ccccc1 [Compound C]				MPO (myeloperoxidase) inhibition		erythema inhibition	edema inhibition		— 13.41 ± 11.92%			
CC(=O)NNC(=O)[C@H](CSC/C=C(\C)CC/C=C(\C)CCC=C(C)C)NC(C)=O [Compound D]				MPO (myeloperoxidase) inhibition		erythema inhibition						
CNNC(=O)[C@H](CSC/C=C(\C)CC/C=C(\C)CCC=C(C)C)NC(C)=O [Compound E]				MPO (myeloperoxidase) inhibition		erythema inhibition	edema inhibition	— 5.85 ± 7.02%	— 7.68 ± 8.15%			
CC(C)=CCC/C(C)=C/CC/C(C)=C/CSC[C@H](NC(=O)CCC(F)(F)F)C(=O)NN [Compound F]				MPO (myeloperoxidase) inhibition		erythema inhibition	edema inhibition			21.33 ± 12.68 — %	11.04 ± 7.28 — %	7.86 ± 0.98 — %
